Data reported in PubChem BioAssay AID248 (DTP/NCI, 2004).
Inconclusive results and toxic doses are left out. Rule as the data show it: active = T/C of 150% or more; inactive = T/C below 125%.

System: L1210 leukemia ip in BDF1 mice, survival T/C
Experiment: NCI In Vivo Anticancer Drug Screen. Data for tumor model L1210 Leukemia (intraperitoneal) in B6D2F1 (BDF1) mice
Conditions: endpoint: mean survival time, higher = longer survival
Procedure, shortened: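 Tumor cells were implanted, animals were treated, and survival was followed. The result divides the treated measurement by the vehicle-control measurement.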

[1] = dose: 100.0 mg/kg/injection, schedule: Q04DX003 (ip), vehicle: saline
[2] = dose: 200.0 mg/kg/injection, schedule: Q04DX003 (ip), vehicle: saline
[3] = dose: 50.0 mg/kg/injection, schedule: Q01DX009 (ip), vehicle: saline
[4] = dose: 100.0 mg/kg/injection, schedule: Q01DX001 (ip), vehicle: saline
[5] = dose: 100.0 mg/kg/injection, schedule: Q01DX009 (ip), vehicle: saline
[6] = dose: 200.0 mg/kg/injection, schedule: Q01DX001 (ip), vehicle: saline
[7] = dose: 200.0 mg/kg/injection, schedule: Q01DX009 (ip), vehicle: saline
[8] = dose: 400.0 mg/kg/injection, schedule: Q01DX001 (ip), vehicle: saline
[9] = dose: 50.0 mg/kg/injection, schedule: Q01DX001 (ip), vehicle: carboxymethylcellulose (CMC)
[10] = dose: 100.0 mg/kg/injection, schedule: Q01DX001 (ip), vehicle: carboxymethylcellulose (CMC)
[11] = dose: 200.0 mg/kg/injection, schedule: Q01DX001 (ip), vehicle: carboxymethylcellulose (CMC)
[12] = dose: 400.0 mg/kg/injection, schedule: Q01DX001 (ip), vehicle: carboxymethylcellulose (CMC)
[13] = dose: 100.0 mg/kg/injection, schedule: Q04DX003 (ip), vehicle: Klucel (hydroxypropylcellulose) (HPC)
[14] = dose: 200.0 mg/kg/injection, schedule: Q04DX003 (ip), vehicle: Klucel (hydroxypropylcellulose) (HPC)
[15] = dose: 400.0 mg/kg/injection, schedule: Q04DX003 (ip), vehicle: Klucel (hydroxypropylcellulose) (HPC)
[16] = dose: 100.0 mg/kg/injection, schedule: Q01DX009 (ip), vehicle: Klucel (hydroxypropylcellulose) (HPC)
[17] = dose: 200.0 mg/kg/injection, schedule: Q01DX009 (ip), vehicle: Klucel (hydroxypropylcellulose) (HPC)
[18] = dose: 400.0 mg/kg/injection, schedule: Q01DX009 (ip), vehicle: Klucel (hydroxypropylcellulose) (HPC)
[19] = dose: 100.0 mg/kg/injection, schedule: Q01DX001 (ip), vehicle: saline with Tween-80
[20] = dose: 100.0 mg/kg/injection, schedule: Q04DX003 (ip), vehicle: saline with Tween-80
[21] = dose: 200.0 mg/kg/injection, schedule: Q04DX003 (ip), vehicle: saline with Tween-80
[22] = dose: 400.0 mg/kg/injection, schedule: Q04DX003 (ip), vehicle: saline with Tween-80

Measured: T/C

CN(C)CCOC(=O)C1C2CC3OC(=O)C1C3C2 (stereo not drawn)
inactive: [1] 96 % of control | [2] 104 % of control | dose: 400.0 mg/kg/injection, schedule: Q04DX003 (ip), vehicle: saline 104 % of control

CC(=O)OC1/C(=C/c2ccco2)CCC2CCCCC21C (stereo not drawn)
inactive: [3] 96 % of control | [4] 91 % of control | [5] 103 % of control | [6] 88 % of control | [7] 108 % of control | [8] 93 % of control

Cc1ccc(S(=O)(=O)Nc2cccc3cnccc23)cc1
inactive: [9] 96 % of control | [10] 105 % of control | [11] 102 % of control | [12] 105 % of control

Cc1nnc(NC(=O)NCCCl)s1
inactive: [13] 100 % of control | [14] 107 % of control | [15] 118 % of control

Nc1n[nH]c([N+](=O)[O-])n1
inactive: dose: 100.0 mg/kg/injection, schedule: Q04DX003 (ip), vehicle: saline sonified 100 % of control | dose: 200.0 mg/kg/injection, schedule: Q04DX003 (ip), vehicle: saline sonified 103 % of control | dose: 400.0 mg/kg/injection, schedule: Q04DX003 (ip), vehicle: saline sonified 109 % of control

O=C(CC(=O)c1ccccc1)c1ccccc1.O=C(CC(=O)c1ccccc1)c1ccccc1.O=C(CC(=O)c1ccccc1)c1ccccc1.[Cr]
inactive: dose: 100.0 mg/kg/injection, schedule: Q04DX002 (ip), vehicle: Klucel (hydroxypropylcellulose) (HPC) 93 % of control | dose: 200.0 mg/kg/injection, schedule: Q04DX002 (ip), vehicle: Klucel (hydroxypropylcellulose) (HPC) 101 % of control | dose: 400.0 mg/kg/injection, schedule: Q04DX002 (ip), vehicle: Klucel (hydroxypropylcellulose) (HPC) 104 % of control

CCOC(=O)CNC(c1ccccc1)(c1ccccc1)c1ccccc1
inactive: [16] 106 % of control | [13] 91 % of control | [17] 90 % of control | [14] 91 % of control | [18] 90 % of control | [15] 98 % of control

CN(C)C(=O)Sc1c(Cl)cc(Cl)cc1S(=O)(=O)F
inactive: [16] 97 % of control | [17] 100 % of control | [18] 97 % of control

COC1(OC)CCC=C(CNc2ncnc3nc[nH]c23)C1
inactive: [19] 102 % of control | dose: 200.0 mg/kg/injection, schedule: Q01DX001 (ip), vehicle: saline with Tween-80 94 % of control | dose: 400.0 mg/kg/injection, schedule: Q01DX001 (ip), vehicle: saline with Tween-80 100 % of control

C=C(Cl)C[N+]12CN3CN(CN(C3)C1)C2
inactive: dose: 12.5 mg/kg/injection, schedule: Q01DX009 (ip), vehicle: saline 108 % of control | dose: 12.5 mg/kg/injection, schedule: Q04DX003 (ip), vehicle: saline 102 % of control | dose: 25.0 mg/kg/injection, schedule: Q01DX009 (ip), vehicle: saline 101 % of control | dose: 25.0 mg/kg/injection, schedule: Q04DX003 (ip), vehicle: saline 104 % of control | [3] 111 % of control | dose: 50.0 mg/kg/injection, schedule: Q04DX003 (ip), vehicle: saline 102 % of control

OCCNc1ncnc2ccccc12
inactive: [20] 98 % of control | [21] 104 % of control | [22] 104 % of control

O=C(Nc1ccc2c(c1)C(Br)c1ccccc1-2)C(F)(F)F (stereo not drawn)
inactive: [16] 98 % of control | [13] 97 % of control | [17] 93 % of control | [14] 97 % of control | [15] 97 % of control

[NH-]C(CCC(N)=O)C(=O)O.[NH-]C(CCC(N)=O)C(=O)O.[Pd+2] (stereo not drawn)
inactive: dose: 100.0 mg/kg/injection, schedule: Q04DX002 (ip), vehicle: saline 102 % of control | [1] 98 % of control | dose: 200.0 mg/kg/injection, schedule: Q04DX002 (ip), vehicle: saline 102 % of control | [2] 92 % of control | dose: 400.0 mg/kg/injection, schedule: Q04DX002 (ip), vehicle: saline 102 % of control

CN(C)Cc1c(C=C(c2ccccc2)c2ccccc2)ccc2ccccc12
inactive: [9] 94 % of control | [10] 96 % of control | [11] 94 % of control | [12] 96 % of control

COc1ccc(C(=O)c2cc3cccc(OC)c3o2)cc1OC
inactive: dose: 75.0 mg/kg/injection, schedule: Q01DX009 (ip), vehicle: saline 87 % of control | [4] 102 % of control | dose: 150.0 mg/kg/injection, schedule: Q01DX009 (ip), vehicle: saline 92 % of control | [6] 94 % of control | dose: 300.0 mg/kg/injection, schedule: Q01DX009 (ip), vehicle: saline 93 % of control | [8] 93 % of control

CC(=O)c1scc2c1CCCC2
inactive: dose: 25.0 mg/kg/injection, schedule: Q01DX001 (ip), vehicle: saline with Tween-80 94 % of control | dose: 50.0 mg/kg/injection, schedule: Q01DX001 (ip), vehicle: saline with Tween-80 96 % of control | [19] 96 % of control

Cc1cc(O)c(C)c2c1CC[C@H]1[C@@H]2OC(=O)[C@@H]1C
inactive: dose: 100.0 mg/kg/injection, schedule: Q01DX001 (ip), vehicle: other 98 % of control | dose: 200.0 mg/kg/injection, schedule: Q01DX001 (ip), vehicle: other 92 % of control | dose: 400.0 mg/kg/injection, schedule: Q01DX001 (ip), vehicle: other 97 % of control

COc1cc2c(cc1OC)C1CCc3cc4c(cc3C1N=C2)OCO4 (stereo not drawn)
inactive: dose: 80.0 mg/kg/injection, schedule: Q01DX009 (ip), vehicle: saline 96 % of control | dose: 120.0 mg/kg/injection, schedule: Q01DX009 (ip), vehicle: saline 98 % of control | dose: 240.0 mg/kg/injection, schedule: Q01DX009 (ip), vehicle: saline 98 % of control | dose: 400.0 mg/kg/injection, schedule: Q01DX009 (ip), vehicle: saline 91 % of control

O=C1C(Br)=C(c2ccccc2)C(=O)C(Br)=C1c1ccccc1
inactive: [10] 90 % of control | [11] 92 % of control | [12] 97 % of control

Cc1n[nH]c(=S)n1N
inactive: [20] 115 % of control | [21] 102 % of control | [22] 96 % of control

COC(=O)C1C2C=CC(C2=C(c2ccccc2)c2ccccc2)C1C(=O)OC (stereo not drawn)
inactive: dose: 100.0 mg/kg/injection, schedule: Q01DX001 (ip), vehicle: Klucel (hydroxypropylcellulose) (HPC) 98 % of control | [16] 96 % of control | [13] 107 % of control | dose: 200.0 mg/kg/injection, schedule: Q01DX001 (ip), vehicle: Klucel (hydroxypropylcellulose) (HPC) 97 % of control | [17] 102 % of control | [14] 100 % of control | dose: 400.0 mg/kg/injection, schedule: Q01DX001 (ip), vehicle: Klucel (hydroxypropylcellulose) (HPC) 92 % of control | [18] 96 % of control | [15] 100 % of control

CCOP(=O)(OCC)OCc1ccccc1
inactive: dose: 12.5 mg/kg/injection, schedule: Q04DX003 (ip), vehicle: saline with Tween-80 98 % of control

N#CC1c2ccccc2C=CN1C(=O)CCBr (stereo not drawn)
inactive: dose: 100.0 mg/kg/injection, schedule: Q01DX009 (ip), vehicle: saline with Tween-80 112 % of control | dose: 200.0 mg/kg/injection, schedule: Q01DX009 (ip), vehicle: saline with Tween-80 102 % of control | dose: 400.0 mg/kg/injection, schedule: Q01DX009 (ip), vehicle: saline with Tween-80 96 % of control

Cc1ccc(S(=O)(=O)NN)cc1
inactive: [20] 97 % of control | [21] 101 % of control | [22] 88 % of control

CCCCCCOC(=O)CCC(=O)OCCCCCC
inactive: [16] 97 % of control | [13] 92 % of control | [17] 101 % of control | [14] 92 % of control | [18] 97 % of control | [15] 97 % of control

Cc1cc(=O)n(C)c[n+]1C
inactive: dose: 50.0 mg/kg/injection, schedule: Q01DX001 (ip), vehicle: saline 93 % of control | [3] 106 % of control | [4] 106 % of control | [5] 109 % of control | [6] 100 % of control | [7] 113 % of control | [8] 96 % of control
